For test [1], the target named is T1, Porcine pancreatic phospholipase A2 (Sus scrofa, UniProt P00592).
T1 construct: purchased Boehringer Mannheim·Yamanouchi K.K. 161454·122416
The test is described as follows: Phospholipase A2 inhibitory activity, method B (L-α-dipalmitoylphosphatidylcholine substrate). The class given is biochemical. Conditions: 37°C for 30 minutes; for inhibition at 1000 ppm: 1,000 ppm, read-out: % inhibition of PLA2 (1,000 ppm). The method, then:
To a solution prepared by dissolving 9.2 mg of L-α-dipalmitoylphosphatidylcholine (manufactured by Nichiyu Liposome K.K.) in 0.5 ml of chloroform, a solution prepared by dissolving 32 mg of sodium cholate (manufactured by Wako Pure Chemical Industries, Ltd.) in 0.5 ml of methanol, was added, followed by mixing. The solvent of the mixture was removed under a nitrogen stream, and then 2.5 ml of a 250 mM sodium chloride solution [prepared by dissolving sodium chloride in a 100 mM Tris-HCl buffer solution {tris(hydroxymethyl)aminomethane (manufactured by Nacalai Tesque K.K.) was adjusted to pH8.0 with hydrochloric acid}] was added thereto, and the mixture was dissolved under stirring to obtain a substrate.
Porcine pancreatic phospholipase A2 [(161454·122416) manufactured by Boehringer Mannheim·Yamanouchi K.K.] was used.
To a 96 well microtitration plate, 20 µl of a solution containing calcium chloride, bovine serum alubmin (manufactured by Sigma Chemical, Co.) and a Tris-HCl buffer solution (pH8.0) at concentrations of 25 mM, 4.5 mg/ml and 100 mM, respectively, 5 µl of a solution prepared by dissolving 10 mg of a test compound in 500 µl of diemthylsulfoxide, followed by an addition of 500 µl of a 200 mM Tris-HCl buffer solution, 5 µl of an enzyme solution (10 µg/ml) [prepared by dissolving the enzyme in a bovine serum alubmin solution (prepared by dissolving bovine serum alubmin in a 100 mM Tris-HCl buffer solution at a concentration of 1 mg/ml)] and 20 µl of the substrate, were added and reacted at 37°C for 30 minutes. After termination of the reaction, the released free fatty acid was quantitatively analyzed in accordance with the ACS-ACOD (acyl CoA synthetase-acyl CoA oxidase) method [a kit of NEFA C test wako (manufactured by Wako Pure Chemical Industries, Ltd.) was used]. The quantitative analysis was made by means of Microplate ELISA Reader (Model 2550EIA Reader, manufactured by Bio-Rad Laboratories) at a wavelength of 540 nm. Separately, such experiments as mentioned above, were carried out at various concentrations (1 µg/ml, 0.75 µg/ml, 0.5 µg/ml and 0.25 µg/ml) of phospholipase A2 without a test compound. Then, the concentration of the free fatty acid versus the concentration of phospholipase A2 was plotted.
From this standard curve, the apparent concentration of phospholipase A2 in the case with a test compound, was read. Then, the percent inhibition of the enzyme was calculated by the following formula. Percent inhibition (%) = (l -(A)/(B)) x 100 [formula] • A: Apparent enzyme concentration when a test compound is added. • B: True enzyme concentration when a test compound is added.

Test [2] deals with experimental acute pancreatitis model. The test is described as follows: Effects against acute pancreatitis (Test Example 8, closed duodenal loop method, lesion scores). Conditions: Rattus norvegicus, 10 mg/kg single intravenous injection, sodium salt, 6 hours after ventrotomy. It counts as in vivo, Crj-CD male rats. The method, then:
Using Crj-CD male rats, each test group consisted of 3 rats. An experimental acute pancreatitis model was prepared by a closed duodenal loop method under anethesia with halothane (manufactured by Hoechst Japan) and nitrous oxide (manufactured by Sumitomo Seika K.K.) applied by a general inhalation anesthesia machine (Model EM2 and halothane evaporator F-Model). Each compound (subjected to the test in the form of a sodium salt) was continuously intravenously injected into the tail vein in an amount of 0.4 ml/100 g to 0.6 ml/100 g at a rate of 0.05 ml per minute by a pump (Technicon AA II Proportioning Pump III, manufactured by Technicon Instruments Corporation) or rapidly intravenously injected. No injection was made to a control group. Gross pathological examination was conducted upon expiration of 6 hours after the ventrotomy in the case of the group to which the compound was administered. With respect to each of four lesions among pancreatic lesions i.e. petechia, ecchymosis, pancreatic necrosis and abdominal fatty necrosis, the grade and the distribution of lesions were scored with five grades of 0, 0.5, 1, 2 and 3 (severe lesions are 3). The sum of all lesions was designated as scores of pancreatitis lesions, and the sum of the score of petechia and the score of ecchymosis only was designated as scores of hemorrhagic lesions. The pancreatitis inhibition rate (%) and the hemorrhage inhibition rate (%) were obtained by the following formulas, and the results are shown in Table 13. Pancreatitis inhibition rate (%) = (l -(H)/(G)) x 100 [formula] • H: Scores of pancreatitis lesions of the group to which a test compound was administered. • G: Scores of pancreatitis lesions of the control group. Hemorrhage inhibition rate (%) = (l -(J)/(I)) x 100 [formula] • J: Scores of hemorrhagic lesions of the group to which a test compound was administered. • I: Scores of hemorrhagic lesions of the control group.

Setting [3] is: read-out: Inhibition rate of hemorrhagic lesions (%).
Setting [4] is: read-out: Inhibition rate of pancreatitis lesions (%).

Where two headings read alike, the source gives them in different places.

T1 sequence (P00592 23-146): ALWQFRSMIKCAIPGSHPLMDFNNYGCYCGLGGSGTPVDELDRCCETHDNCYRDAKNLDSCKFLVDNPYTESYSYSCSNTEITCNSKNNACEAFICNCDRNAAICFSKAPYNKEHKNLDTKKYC

Consider `O=C(Nc1cc(C(F)(F)F)cnc1NS(=O)(=O)C(F)(F)F)c1cccs1` [compound 92], for which, in test [1], the inhibition at 1000 ppm was determined as 75%. In the case of `CC(Cl)(Cl)C(=O)Nc1cc(C(F)(F)F)cnc1NS(C)(=O)=O` [compound 89], in test [1], the inhibition at 1000 ppm came out at 51%. Same read-out and setting: for `CN(C)S(=O)(=O)Nc1ncc(C(F)(F)F)cc1NC(=O)C1CCCC1` [compound 111] the value was 41%; for `O=C(Nc1cc(C(F)(F)F)cnc1NS(=O)(=O)c1cccs1)c1ccc2c(c1)CCC2` [compound 127], 89%; for `COS(=O)(=O)Nc1ncc(C(F)(F)F)cc1NC(=O)C1CCCCC1` [compound 115], 52%. Take `CS(=O)(=O)Nc1ncc(C(F)(F)F)cc1NC(=O)C=Cc1ccccc1` [compound 71]: the inhibition at 1000 ppm in test [1] stood at 77%. Consider `CCOS(=O)(=O)Nc1ncc(C(F)(F)F)cc1NC(=O)c1ccc2c(c1)CCC2` [compound 118], for which the inhibition at 1000 ppm in test [1] was determined as 84%.

For `CS(=O)(=O)Nc1ncc(C(F)(F)F)cc1NC(=O)C(F)(F)C(F)(F)F` [compound 260], the “% inhibition of PLA2 (1,000 ppm)” value in test [1] was 53%.

In the case of `CCCCS(=O)(=O)Nc1ncc(C(F)(F)F)cc1NC(=O)C(F)(F)Cl` [compound 108], in test [1], the inhibition at 1000 ppm stood at 61%.

For the molecule `CCS(=O)(=O)Nc1ncc(C(F)(F)F)cc1NC(=O)c1ccc(C(F)(F)F)cc1` [compound 100], the inhibition at 1000 ppm in test [1] worked out at 83%. With `CS(=O)(=O)Nc1ncc(C(F)(F)F)cc1NC(=O)c1cc2c(s1)CCC2` [compound 88], the inhibition at 1000 ppm in test [1] worked out at 83%. With `CCCCS(=O)(=O)Nc1ncc(C(F)(F)F)cc1NC(=O)C1CC1` [compound 107], the inhibition in vivo at 10 mg/kg in test [2] (setting [3]) was determined as 63%; in test [2] (setting [4]) it was 61%.

In the case of `O=C(Nc1cc(C(F)(F)F)cnc1NS(=O)(=O)c1cccs1)C1CCCCC1` [compound 126], the inhibition at 1000 ppm in test [1] is 84%. The same measure, in the same setting: for `CS(=O)(=O)Nc1ncc(C(F)(F)F)cc1NC(=O)C#Cc1ccccc1` [compound 75] the value was 81%. In the case of `CS(=O)(=O)Nc1ncc(C(F)(F)F)cc1NC(=O)CCc1ccccc1` [compound 64], the inhibition at 1000 ppm in test [1] was 61%. The inhibition in vivo at 10 mg/kg in test [2] (setting [3]) was 60%; in test [2] (setting [4]) it was 68%. For `Cc1ccc(C(=O)Nc2cc(C(F)(F)F)cnc2NS(C)(=O)=O)s1` [compound 83], the inhibition at 1000 ppm in test [1] was found to be 64%. The inhibition in vivo at 10 mg/kg in test [2] (setting [3]) worked out at 53%; in test [2] (setting [4]), 51%. With `Cc1cc(C)cc(C(=O)Nc2cc(C(F)(F)F)cnc2NS(C)(=O)=O)c1` [compound 122], the inhibition at 1000 ppm in test [1] turned out to be 56%. In addition, the inhibition in vivo at 10 mg/kg in test [2] (setting [3]) and in test [2] (setting [4]) was 51% each time. As for `CS(=O)(=O)Nc1ncc(C(F)(F)F)cc1NC(=O)c1ccc(F)cc1F` [compound 76], in test [1], the inhibition at 1000 ppm is 61%. As for `CCS(=O)(=O)Nc1ncc(C(F)(F)F)cc1NC(=O)C1CCCCCC1` [compound 97], the inhibition at 1000 ppm in test [1] is 88%. Besides, the inhibition in vivo at 10 mg/kg in test [2] (setting [3]) and in test [2] (setting [4]) was 35% each time. For the molecule `CC(C)S(=O)(=O)Nc1ncc(C(F)(F)F)cc1NC(=O)C1CCCCC1` [compound 103], the inhibition at 1000 ppm in test [1] was found to be 86%. Take `CS(=O)(=O)Nc1ncc(C(F)(F)F)cc1NC(=O)C(=O)c1ccccc1` [compound 90]: the inhibition at 1000 ppm in test [1] was found to be 79%. `C=CCCC(=O)Nc1cc(C(F)(F)F)cnc1NS(C)(=O)=O` [compound 74]: the inhibition at 1000 ppm in test [1] was determined as 33%. The figures for the inhibition in vivo at 10 mg/kg in test [2] (setting [3]) and in test [2] (setting [4]) were 66% and 67%, respectively. On to `CCOS(=O)(=O)Nc1ncc(C(F)(F)F)cc1NC(=O)C1CCCCC1` [compound 117], for which the inhibition at 1000 ppm in test [1] amounted to 65%. In addition, the inhibition in vivo at 10 mg/kg in test [2] (setting [3]) and in test [2] (setting [4]) was 30% each time.

Turning to `CS(=O)(=O)Nc1ncc(C(F)(F)F)cc1NC(=O)c1ccsc1` [compound 84], the inhibition at 1000 ppm in test [1] was 56%. Regarding `CCS(=O)(=O)Nc1ncc(C(F)(F)F)cc1NC(=O)c1cccc(C(F)(F)F)c1` [compound 99], the inhibition at 1000 ppm in test [1] worked out at 86%. Consider `COc1ccc(S(=O)(=O)Nc2ncc(C(F)(F)F)cc2NC(=O)c2cccs2)cc1` [compound 109], for which, in test [1], the inhibition at 1000 ppm amounted to 67%. As for `CN(C)S(=O)(=O)Nc1ncc(C(F)(F)F)cc1NC(=O)C(F)(F)C(F)(F)F` [compound 112], in test [1], the inhibition at 1000 ppm turned out to be 79%. For `CS(=O)(=O)Nc1ncc(C(F)(F)F)cc1NC(=O)c1ccc2c(c1)OCCO2` [compound 34], the inhibition in vivo at 10 mg/kg in test [2] (setting [3]) and in test [2] (setting [4]) was 30% throughout. With `CCCCCCC(=O)Nc1cc(C(F)(F)F)cnc1NS(C)(=O)=O` [compound 124], in test [1], the inhibition at 1000 ppm is 78%. The inhibition in vivo at 10 mg/kg in test [2] (setting [3]) and in test [2] (setting [4]) was 51% throughout.

For `CS(=O)(=O)Nc1ncc(C(F)(F)F)cc1NC(=O)c1ccc2c(c1)OCC(F)(F)O2` [Compound No. 35], the inhibition in vivo at 10 mg/kg in test [2] (setting [3]) and in test [2] (setting [4]) was 35% in each case.

Take `COS(=O)(=O)Nc1ncc(C(F)(F)F)cc1NC(=O)c1ccc2c(c1)CCC2` [compound 116]: the inhibition at 1000 ppm in test [1] is 69%.

For the molecule `CCc1ccc(C(=O)Nc2cc(C(F)(F)F)cnc2NS(C)(=O)=O)cc1` [compound 81], in test [1], the inhibition at 1000 ppm is 94%. Further, the inhibition in vivo at 10 mg/kg was found to be 49% in test [2] (setting [3]) and 58% in test [2] (setting [4]).

For `CS(=O)(=O)Nc1ncc(C(F)(F)F)cc1NC(=O)CC1CCCC1` [compound 62], the inhibition at 1000 ppm in test [1] is 53%. For the same molecule, the inhibition in vivo at 10 mg/kg was found to be 45% in test [2] (setting [3]) and 61% in test [2] (setting [4]). As to `CCS(=O)(=O)Nc1ncc(C(F)(F)F)cc1NC(=O)C1CC=CCC1` (centres unmarked) [compound 95], in test [1], the inhibition at 1000 ppm stood at 85%. Regarding `CS(=O)(=O)Nc1ncc(C(F)(F)F)cc1NC(=O)c1ccco1` [compound 85], the inhibition at 1000 ppm in test [1] turned out to be 33%. In addition, the inhibition in vivo at 10 mg/kg in test [2] (setting [3]) stood at 57%; in test [2] (setting [4]), 67%.

`CC(C)=CC(=O)Nc1cc(C(F)(F)F)cnc1NS(C)(=O)=O` [compound 70]: the inhibition at 1000 ppm in test [1] turned out to be 40%.

The values above are taken from patent publication EP0465913B1, “Diaminotrifluoromethylpyrimidine derivatives, process for their production and phospholipase A2 inhibitor containing them” (ISHIHARA SANGYO KAISHA, LTD., priority 1990, dated 1992).
